{"source": "ChEMBL document CHEMBL5512675", "about": "“Design of Selective PARP-1 Inhibitors and Antitumor Studies” (J Med Chem, 2024)", "key": {"SK-OV-3 [1]": {"tested_on": "SK-OV-3", "test": "animal or person", "conditions": "Mus musculus, SK-OV-3, po, 744 h, read-out: TGI", "description": "Antitumor activity against human SK-OV-3 cells xenografted in female BALB/c nude mouse assessed as tumor growth inhibition at 50 mg/kg, po administered via gavage once daily for 31 days relative to control"}, "[2]": {"target": "Poly [ADP-ribose] polymerase 2 (Homo sapiens, UniProt Q9UGN5)", "sequence (Q9UGN5 whole entry)": "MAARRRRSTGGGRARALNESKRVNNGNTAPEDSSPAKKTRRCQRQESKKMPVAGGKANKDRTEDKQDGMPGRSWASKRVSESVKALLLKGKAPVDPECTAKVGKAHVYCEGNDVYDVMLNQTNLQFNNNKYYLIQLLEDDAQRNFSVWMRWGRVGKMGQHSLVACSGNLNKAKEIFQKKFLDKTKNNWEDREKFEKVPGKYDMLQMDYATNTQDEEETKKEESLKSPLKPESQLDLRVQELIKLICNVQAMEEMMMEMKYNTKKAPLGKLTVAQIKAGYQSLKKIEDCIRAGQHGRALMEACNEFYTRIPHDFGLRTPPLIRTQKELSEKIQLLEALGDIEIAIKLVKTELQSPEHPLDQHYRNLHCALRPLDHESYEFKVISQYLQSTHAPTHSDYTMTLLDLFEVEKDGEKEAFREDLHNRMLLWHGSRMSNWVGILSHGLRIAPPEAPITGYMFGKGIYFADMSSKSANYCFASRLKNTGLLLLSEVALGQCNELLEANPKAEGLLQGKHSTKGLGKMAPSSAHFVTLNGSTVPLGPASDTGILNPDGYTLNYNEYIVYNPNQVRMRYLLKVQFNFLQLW", "test": "Inhibition of GST-tagged human PARP2 incubated for 30 mins by chemiluminescence based UV/visible spectrophotometric analysis"}, "[3]": {"target": "Poly [ADP-ribose] polymerase 1 (Homo sapiens, UniProt P09874)", "sequence (P09874 whole entry)": "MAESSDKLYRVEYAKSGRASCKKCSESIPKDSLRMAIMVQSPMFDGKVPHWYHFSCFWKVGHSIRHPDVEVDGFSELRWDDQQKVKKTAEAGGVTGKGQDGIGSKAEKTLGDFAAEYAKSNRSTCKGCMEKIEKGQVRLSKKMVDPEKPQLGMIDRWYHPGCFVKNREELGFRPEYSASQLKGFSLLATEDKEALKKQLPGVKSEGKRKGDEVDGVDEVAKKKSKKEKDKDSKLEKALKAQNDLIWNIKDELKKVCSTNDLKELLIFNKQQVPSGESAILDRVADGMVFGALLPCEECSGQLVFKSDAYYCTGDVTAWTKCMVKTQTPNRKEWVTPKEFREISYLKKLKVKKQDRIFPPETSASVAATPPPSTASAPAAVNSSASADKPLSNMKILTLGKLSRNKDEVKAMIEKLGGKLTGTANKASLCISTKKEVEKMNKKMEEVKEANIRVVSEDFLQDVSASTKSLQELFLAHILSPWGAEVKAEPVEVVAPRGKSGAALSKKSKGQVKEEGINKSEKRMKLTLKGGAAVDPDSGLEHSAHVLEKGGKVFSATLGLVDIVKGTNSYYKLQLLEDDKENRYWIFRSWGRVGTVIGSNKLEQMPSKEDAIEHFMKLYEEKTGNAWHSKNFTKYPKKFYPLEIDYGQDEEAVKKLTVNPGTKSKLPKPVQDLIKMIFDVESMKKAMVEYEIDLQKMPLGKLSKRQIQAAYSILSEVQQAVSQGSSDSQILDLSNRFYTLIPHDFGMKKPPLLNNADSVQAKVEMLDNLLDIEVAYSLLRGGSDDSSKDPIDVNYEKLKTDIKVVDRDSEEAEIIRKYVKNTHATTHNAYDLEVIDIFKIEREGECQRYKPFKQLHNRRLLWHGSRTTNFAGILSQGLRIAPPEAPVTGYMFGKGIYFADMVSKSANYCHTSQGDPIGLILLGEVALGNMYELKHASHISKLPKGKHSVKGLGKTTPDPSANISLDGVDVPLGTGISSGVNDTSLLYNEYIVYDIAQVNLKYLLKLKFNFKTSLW", "test": "Inhibition of GST-tagged human PARP1 incubated for 30 mins by chemiluminescence based UV/visible spectrophotometric analysis"}, "[4]": {"target": "Poly [ADP-ribose] polymerase 1 (Mus musculus, UniProt P11103)", "sequence (P11103 whole entry)": "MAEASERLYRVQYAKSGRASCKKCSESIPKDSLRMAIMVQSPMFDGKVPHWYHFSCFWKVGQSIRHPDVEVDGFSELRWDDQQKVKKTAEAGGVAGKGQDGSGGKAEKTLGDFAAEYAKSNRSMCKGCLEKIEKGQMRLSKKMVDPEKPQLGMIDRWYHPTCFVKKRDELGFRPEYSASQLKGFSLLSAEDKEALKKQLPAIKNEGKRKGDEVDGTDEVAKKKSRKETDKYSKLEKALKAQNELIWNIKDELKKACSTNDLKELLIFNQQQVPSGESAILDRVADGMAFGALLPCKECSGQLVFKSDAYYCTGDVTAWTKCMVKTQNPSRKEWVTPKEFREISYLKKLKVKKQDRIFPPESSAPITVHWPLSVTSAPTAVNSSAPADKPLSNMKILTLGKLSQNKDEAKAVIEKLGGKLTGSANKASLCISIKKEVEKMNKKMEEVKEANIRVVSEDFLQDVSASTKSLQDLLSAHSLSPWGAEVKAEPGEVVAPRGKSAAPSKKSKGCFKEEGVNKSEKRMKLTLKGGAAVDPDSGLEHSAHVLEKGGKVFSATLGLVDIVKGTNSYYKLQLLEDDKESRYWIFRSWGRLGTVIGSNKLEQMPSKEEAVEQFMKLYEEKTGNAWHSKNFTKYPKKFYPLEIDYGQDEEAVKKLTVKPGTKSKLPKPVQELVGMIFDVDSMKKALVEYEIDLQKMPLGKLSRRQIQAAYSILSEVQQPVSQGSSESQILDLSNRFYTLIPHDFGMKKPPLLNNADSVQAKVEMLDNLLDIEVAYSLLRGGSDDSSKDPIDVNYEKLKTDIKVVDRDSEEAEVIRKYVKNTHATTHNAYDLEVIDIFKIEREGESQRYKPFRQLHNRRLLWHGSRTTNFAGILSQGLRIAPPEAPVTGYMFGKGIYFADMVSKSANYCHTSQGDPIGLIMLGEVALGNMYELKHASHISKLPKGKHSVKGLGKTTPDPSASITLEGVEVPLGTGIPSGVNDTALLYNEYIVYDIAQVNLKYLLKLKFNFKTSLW", "test": "Inhibition of recombinant mouse PARP-1 incubated for 16 hrs in presence of NAD+ by liquid scintillation spectrometry based scintillation proximity assay"}, "HCC1937": {"tested_on": "HCC1937", "test": "cells", "conditions": "Homo sapiens, HCC1937, 72 h", "description": "Antiproliferative activity against human HCC1937 cells harboring BRCA2 mutant assessed as inhibition of cell proliferation incubated for 72 hrs"}, "[5]": {"test": "Inhibition of PARP1 Ala755Gln, Gln759Ser and Val762Ile mutant (unknown origin) incubated for 1 hrs in presence of NAD and DNA by ELISA"}, "in vitro [6]": {"test": "in vitro", "conditions": "human, H8 cells", "description": "Cytotoxicity against human H8 cells assessed as inhibition of cell proliferation incubated for 72 hrs"}, "C-33-A": {"tested_on": "C-33-A", "test": "cells", "conditions": "Homo sapiens, 72 h", "description": "Antiproliferative activity against human C-33-A cells assessed as inhibition of cell proliferation incubated for 72 hrs"}, "in vitro [7]": {"test": "in vitro", "conditions": "human, NCM460 cells", "description": "Cytotoxicity against human NCM460 cells assessed as inhibition of cell proliferation incubated for 72 hrs"}, "SiHa": {"tested_on": "SiHa", "test": "cells", "conditions": "Homo sapiens, 72 h", "description": "Antiproliferative activity against human SiHa cells assessed as inhibition of cell proliferation incubated for 72 hrs"}, "HCT-116": {"tested_on": "HCT-116", "test": "cells", "conditions": "Homo sapiens, HCT-116, 72 h", "description": "Antiproliferative activity against human HCT-116 cells assessed as inhibition of cell proliferation incubated for 72 hrs"}, "A549": {"tested_on": "A549", "test": "cells", "conditions": "Homo sapiens, A549, 72 h", "description": "Antiproliferative activity against human A549 cells assessed as inhibition of cell proliferation incubated for 72 hrs"}, "SK-OV-3 [8]": {"tested_on": "SK-OV-3", "test": "cells", "conditions": "Homo sapiens, SK-OV-3, 72 h", "description": "Antiproliferative activity against human SK-OV-3 cells assessed as inhibition of cell proliferation incubated for 72 hrs"}, "CAPAN-1": {"tested_on": "CAPAN-1", "test": "cells", "conditions": "Homo sapiens, CAPAN-1, 72 h", "description": "Antiproliferative activity against human CAPAN-1 cells harboring BRCA1 mutant assessed as inhibition of cell proliferation incubated for 72 hrs"}}, "data": [{"smiles": "COc1cc(/C=N/NC(N)=S)c(Br)c(Br)c1OC", "values": [{"measurement": "inhibition in vivo at 50 mg/kg", "setting": "SK-OV-3 [1]", "result": 57.4, "unit": "%"}, {"measurement": "IC50", "setting": "[2]", "result": 1560, "unit": "nM"}, {"measurement": "IC50", "setting": "[3]", "result": 42.9, "unit": "nM"}]}, {"smiles": "COc1cc(-c2nc3c(C(N)=O)cccc3[nH]2)cc(Br)c1OS(=O)(=O)c1c(C)cc(C)cc1C", "values": [{"measurement": "IC50", "setting": "[2]", "result": 1780, "unit": "nM"}, {"measurement": "IC50", "setting": "[3]", "result": 33.7, "unit": "nM"}]}, {"smiles": "COc1cc(-c2nc3c(C(N)=O)cccc3[nH]2)cc(Br)c1OC(=O)C(C)(C)C", "values": [{"measurement": "IC50", "setting": "[2]", "result": 2070, "unit": "nM"}, {"measurement": "IC50", "setting": "[3]", "result": 33.2, "unit": "nM"}]}, {"smiles": "CCCS(=O)(=O)Oc1c(Br)cc(-c2nc3c(C(N)=O)cccc3[nH]2)cc1OC", "values": [{"measurement": "IC50", "setting": "[2]", "result": 760, "unit": "nM"}, {"measurement": "IC50", "setting": "[3]", "result": 50.5, "unit": "nM"}]}, {"smiles": "Cn1cccc1/C=C1\\C(=O)NC(=O)c2ccccc21", "values": [{"measurement": "IC50", "setting": "[4]", "result": 4790, "unit": "nM"}]}, {"smiles": "O=C(c1cc(Cc2n[nH]c(=O)c3ccccc23)ccc1F)N1CCN(C(=O)C2CC2)CC1", "note": "[OLAPARIB]", "values": [{"measurement": "IC50", "setting": "HCC1937", "result": 22000, "unit": "nM"}, {"measurement": "IC50", "setting": "[5]", "result": 10.4, "unit": "nM"}, {"measurement": "IC50 at 72 h", "setting": "in vitro [6]", "result": "> 200000", "unit": "nM"}, {"measurement": "IC50", "setting": "C-33-A", "result": "> 200000", "unit": "nM"}, {"measurement": "IC50 at 72 h", "setting": "in vitro [7]", "result": "> 200000", "unit": "nM"}, {"measurement": "IC50", "setting": "SiHa", "result": "> 200000", "unit": "nM"}, {"measurement": "IC50", "setting": "HCT-116", "result": "> 200000", "unit": "nM"}, {"measurement": "IC50", "setting": "A549", "result": "> 200000", "unit": "nM"}, {"measurement": "IC50", "setting": "SK-OV-3 [8]", "result": 167000, "unit": "nM"}, {"measurement": "IC50", "setting": "CAPAN-1", "result": 60700, "unit": "nM"}]}]}
